The text below walks through data of patent publication US20250275539A1, “APYRASE INHIBITORS” (Texas Crop Science, Inc., priority 2024, published 2025).

The assay deals with apyrase. Description: Apyrase inhibition assay (screen for apyrase inhibitors, phosphate release read at 630 nm). Format: biochemical. Conditions: inhibitor conc at 1 mM (10 μl added), 3 mM ATP, pH 6.5, room temperature 1 hr. On the procedure: Apyrase inhibitors useful as enhancers of pesticidal activity are assessed using an in vitro assay. The method of Windsor, Bio Techniques 33:1024-1030 (November 2002) was used as follows
• 96 well plates were used for the assay: (Greiner bio-one: REF-655901-96 well, PS, F-bottom, Clear, Non-binding)
• Reaction Buffer: 60 mM Hepes; 3 mM MgCl2, 3 mM CaCl2) and 3 mM ATP (pH 6.5) • Development Buffer A: 2% aqueous ammonium molybdate • Development Buffer B: 11% ascorbic acid in 37.5% TCA in water • Stop buffer C: 2% trisodium citrate in 2% acetic acid solution in water
• Add 100 μl of reaction buffer to each well. • Add 10 μl of DMSO (control) or inhibitor/compound or compounds such as N1915 or orthovanadate to each well. (use inhibitor conc at 1 mM; orthovanadate at 2 mM and N1915 at 1 mM) • Add 10 μl of apyrase (concentration based on optimization—Dilute 1 U/μl enzyme to different concentrations such as 0.1 U, 0.05 U, 0.0025, 0.001 U, 0.0005 U—to find a good range) • Incubate plate at room temperature for 1 hr • Mix development buffer A and B in the ratio of 1:1.5 (just before use). • Add 50 μl of A: B mix in each well (incubate for 2 mins) • Add 50 μl of C in each well • Measure/Read Absorbance of plate @630 nm
Inhibitory data for the apyrase assay described above are provided for selected compounds in Table 3. D is inhibition of 0% to 10%, C is inhibition from 10% to 20%, B is inhibition from 20% to 30%, and A is inhibition above 30%. Blank entries signify compounds that were not tested.
For the compound `Cc1cccc(NS(=O)(=O)c2ccc(OC(F)(F)F)cc2)c1` [Compound A-63, N-(m-tolyl)-4-(trifluoromethoxy)benzenesul-fonamide], the Inhibition result is recorded as “C (C is inhibition from 10% to 20%)”.

Take `CCCc1ccc(S(=O)(=O)Nc2cc(Cl)ccc2-n2cncn2)cc1` [Compound A-122, N-(5-chloro-2-(1H-1,2,4-triazol-1-yl)phenyl)-4-propylbenzenesulfonamide]: the Inhibition entry was “C (C is inhibition from 10% to 20%)”.

In the case of `CCCc1ccc(S(=O)(=O)Nc2cc(C(=O)OC)ccc2S(N)(=O)=O)cc1` [Compound A-25, methyl 3-((4-propylphenyl)sulfonamido)-4-sulfamoylbenzoate], the Inhibition result is “D (D is inhibition of 0% to 10%)”.

Turning to `CCCc1ccc(S(=O)(=O)Nc2ccc(C(=O)O)cc2)cc1` [Compound A-44, 4-((4-propylphenyl)sulfonamido) benzoic acid], the Inhibition entry was “D (D is inhibition of 0% to 10%)”.

Turning to `Cc1cccc(NS(=O)(=O)c2ccc(F)cc2)c1` [Compound A-58, 4-fluoro-N-(m-tolyl)benzenesulfonamide], the Inhibition result is listed as “D (D is inhibition of 0% to 10%)”.

With `O=S(=O)(NCc1ccc2c(c1)OCO2)c1ccc(-c2ccccc2)cc1` [Compound A-36, N-(benzo[d][1,3]dioxol-5-ylmethyl)-[1,1′-biphenyl]-4-sulfonamide], the Inhibition entry is “A (A is inhibition above 30%)”.

Regarding `CCCc1ccc(S(=O)(=O)Nc2ccc(F)cc2C(=O)O)cc1` [Compound A-43, 5-fluoro-2-((4-propylphenyl)sulfonamido) benzoic acid], the Inhibition result is on record as “C (C is inhibition from 10% to 20%)”.

For `CCCc1ccc(S(=O)(=O)Nc2cc(Cl)c(OC)cc2OC)cc1` [Compound A-49, N-(5-chloro-2,4-dimethoxyphenyl)-4-propylbenzenesulfonamide], the Inhibition entry was “D (D is inhibition of 0% to 10%)”.

As for `CCCc1ccc(S(=O)(=O)Nc2cccc(C(N)=O)c2)cc1` [Compound A-84, 3-((4-propylphenyl)sulfonamido) benzamide], the Inhibition result is “D (D is inhibition of 0% to 10%)”.

With `CCCc1ccc(S(=O)(=O)Nc2ccccc2Cc2ccccc2)cc1` [Compound A-91, N-(2-benzylphenyl)-4-propylbenzenesulfonamide], the Inhibition entry is recorded as “B (B is inhibition from 20% to 30%)”.

As for `CCCc1ccc(S(=O)(=O)Nc2c(F)cccc2F)cc1` [Compound A-87, N-(2,6-difluorophenyl)-4-propylbenzenesulfonamide], the Inhibition result was “C (C is inhibition from 10% to 20%)”.

For `CCCC(=O)Nc1cccc(NS(=O)(=O)c2ccc(CCC)cc2)c1C` [Compound A-118, N-(2-methyl-3-((4-propylphenyl)sulfonamido)phenyl)butyramide], the Inhibition result is listed as “D (D is inhibition of 0% to 10%)”.

Take `CCCc1ccc(S(=O)(=O)Nc2c(F)cc(F)cc2Br)cc1` [Compound A-51, N-(2-bromo-4,6-difluorophenyl)-4-propylbenzenesulfonamide]: the Inhibition entry is “D (D is inhibition of 0% to 10%)”.

`CCCc1ccc(S(=O)(=O)Nc2ccccc2Cl)cc1` [Compound A-71, N-(2-chlorophenyl)-4-propylbenzenesulfonamide]: the Inhibition entry is reported as “D (D is inhibition of 0% to 10%)”.

Take `CCCc1ccc(S(=O)(=O)Nc2cc(OC)c(OC)cc2C(=O)OC)cc1` [Compound A-96, methyl 4,5-dimethoxy-2-((4-propylphenyl)sulfonamido) benzoate]: the Inhibition entry is on record as “C (C is inhibition from 10% to 20%)”.

For the compound `CCCc1ccc(S(=O)(=O)Nc2ccc(-c3nnc4n3CCCCC4)cc2)cc1` [Compound A-93, 4-propyl-N-(4-(6,7,8,9-tetrahydro-5H-[1,2,4]triazolo[4,3-a]azepin-3-yl)phenyl) benzenesulfonamide], the Inhibition result is “D (D is inhibition of 0% to 10%)”.

On to `CCCc1ccc(S(=O)(=O)Nc2ccc(N3CCCS3(=O)=O)cc2)cc1` [Compound A-30, N-(4-(1,1-dioxidoisothiazolidin-2-yl)phenyl)-4-propylbenzenesulfonamide], for which the Inhibition result was “C (C is inhibition from 10% to 20%)”.

For the compound `Cc1cccc(NS(=O)(=O)c2ccc(C(N)=O)cc2)c1` [Compound A-18, 4-(N-(m-tolyl)sulfamoyl)benzamide], the Inhibition entry was “C (C is inhibition from 10% to 20%)”.

As to `O=S(=O)(c1ccc(-c2ccccc2)cc1)N1CCc2ccccc21` [Compound A-114], the Inhibition result is “D (D is inhibition of 0% to 10%)”.

As for `CCCc1ccc(S(=O)(=O)Nc2ccc3[nH]ncc3c2)cc1` [Compound A-69, N-(1H-indazol-5-yl)-4-propylbenzenesulfonamide], the Inhibition entry is given as “D (D is inhibition of 0% to 10%)”.

Take `CCCc1ccc(S(=O)(=O)Nc2cccc(-c3nnnn3C3CC3)c2)cc1` [Compound A-28, N-(3-(1-cyclopropyl-1H-tetrazol-5-yl)phenyl)-4-propylbenzenesulfonamide]: the Inhibition result is on record as “D (D is inhibition of 0% to 10%)”.

Consider `CCCc1ccc(S(=O)(=O)Nc2cc(C)ccc2OC)cc1` [Compound A-88, N-(2-methoxy-5-methylphenyl)-4-propylbenzenesulfonamide], for which the Inhibition entry is listed as “D (D is inhibition of 0% to 10%)”.

For `CCCc1ccc(S(=O)(=O)Nc2cc(S(=O)(=O)N3CCCCC3)ccc2C)cc1` [Compound A-90, N-(2-methyl-5-(piperidin-1-ylsulfonyl)phenyl)-4-propylbenzenesulfonamide], the Inhibition result is recorded as “A (A is inhibition above 30%)”.

For the compound `CCCc1ccc(S(=O)(=O)Nc2ccccc2CC)cc1` [Compound A-48, N-(2-ethylphenyl)-4-propylbenzenesulfonamide], the Inhibition entry was “B (B is inhibition from 20% to 30%)”.

For `CCCc1ccc(S(=O)(=O)Nc2ccccc2CC(=O)NC)cc1` [Compound A-41, N-methyl-2-(2-((4-propylphenyl)sulfonamido)phenyl)acetamide], the Inhibition entry is listed as “A (A is inhibition above 30%)”.

In the case of `COc1ccc(OC)c(NS(=O)(=O)c2ccc(-c3ccccc3)cc2)c1` [Compound A-4, N-(2,5-dimethoxyphenyl)-[1,1′-biphenyl]-4-sulfonamide], the Inhibition entry is recorded as “B (B is inhibition from 20% to 30%)”.

With `CCCc1ccc(S(=O)(=O)Nc2ccccc2-n2cnnn2)cc1` [Compound A-109, N-(2-(1H-tetrazol-1-yl)phenyl)-4-propylbenzenesulfonamide], the Inhibition entry is listed as “C (C is inhibition from 10% to 20%)”.

Regarding `CCN1CCCC(NS(=O)(=O)c2ccc(-c3ccccc3)cc2)C1` (centres unmarked) [Compound A-117, N-(1-ethylpiperidin-3-yl)-[1,1′-biphenyl]-4-sulfonamide], the Inhibition result is recorded as “D (D is inhibition of 0% to 10%)”.

For the compound `CCCc1ccc(S(=O)(=O)Nc2ccc(O)c(NC(C)=O)c2)cc1` [Compound A-38, N-(2-hydroxy-5-((4-propylphenyl)sulfonamido)phenyl)acetamide], the Inhibition result is on record as “C (C is inhibition from 10% to 20%)”.

Consider `Cl.NCCNS(=O)(=O)c1ccc(-c2ccccc2)cc1` [Compound A-15, N-(2-aminoethyl)-[1,1′-biphenyl]-4-sulfonamide hydrochloride], for which the Inhibition entry is given as “D (D is inhibition of 0% to 10%)”.

For the compound `Cc1cccc(NS(=O)(=O)c2ccccc2)c1` [Compound A-57, N-(m- tolyl)benzenesulfonamide], the Inhibition result is on record as “D (D is inhibition of 0% to 10%)”.

For `CCCc1ccc(S(=O)(=O)Nc2ccc(C(=O)N(CC)CC)cc2)cc1` [Compound A-78, N,N-diethyl-4-((4-propylphenyl)sulfonamido) benzamide], the Inhibition entry is “D (D is inhibition of 0% to 10%)”.

Consider `O=S(=O)(Nc1ncccn1)c1ccc(-c2ccccc2)cc1` [Compound A-20, N-(pyrimidin-2-yl)-[1,1′-biphenyl]-4-sulfonamide], for which the Inhibition entry is reported as “D (D is inhibition of 0% to 10%)”.

Turning to `CCCc1ccc(S(=O)(=O)Nc2ccccc2N2CCCC2=O)cc1` [Compound A-6, N-(2-(2-oxopyrrolidin-1-yl)phenyl)-4-propylbenzenesulfonamide], the Inhibition entry is on record as “D (D is inhibition of 0% to 10%)”.

Take `CCCc1ccc(S(=O)(=O)Nc2cccc(CN3CCOC3=O)c2)cc1` [Compound A-110, N-(3-((2-oxooxazolidin-3-yl)methyl)phenyl)-4-propylbenzenesulfonamide]: the Inhibition entry is reported as “C (C is inhibition from 10% to 20%)”.

On to `CCCc1ccc(S(=O)(=O)Nc2cccc(F)c2C(=O)O)cc1` [Compound A-42, 2-fluoro-6-((4-propylphenyl)sulfonamido) benzoic acid], for which the Inhibition entry is recorded as “B (B is inhibition from 20% to 30%)”.

`CCCc1ccc(S(=O)(=O)Nc2ccc3c(c2)CCN3C(C)=O)cc1` [Compound A-115, N-(1-acetylindolin-5-yl)-4-propylbenzenesulfonamide]: the Inhibition result is reported as “A (A is inhibition above 30%)”.

Take `O=S(=O)(Nc1cc(-c2cccnc2)n[nH]1)c1ccc(-c2ccccc2)cc1` [Compound A-14, N-(3-(pyridin-3-yl)-1H-pyrazol-5-yl)-[1,1′-biphenyl]-4-sulfonamide]: the Inhibition result is “D (D is inhibition of 0% to 10%)”.
